Assay results: PubChem BioAssay AID268 (DTP/NCI, 2004)
Several values for one entry are separate records, joined by “and”; a condition that tells them apart may be missing. Equal entries are not always repeated.

Tested on: CD2F1 mice, P1798 lymphosarcoma sc, tumor weight T/C
Assay: NCI In Vivo Anticancer Drug Screen. Data for tumor model P1798 Lymphosarcoma (subcutaneous) in CD2F1 (CDF1) mice
Conditions: endpoint: mean tumor weight, higher = larger tumour
Experimental: The antitumor activity of compounds was measured in mice bearing transplantable tumors. Survival or tumor size were measured and the results are expressed as the measurement made in the treated group (T) divided by the measurement made in the vehicle treated control group (C). The tumor model used in this assay is P1798 Lymphosarcoma (subcutaneous) in CD2F1 (CDF1) mice

[1] = dose: 12.5 mg/kg/injection, schedule: Q01DX005 (sc), vehicle: steriod suspending solution
[2] = dose: 12.5 mg/kg/injection, schedule: Q01DX010 (sc), vehicle: steriod suspending solution
[3] = dose: 25.0 mg/kg/injection, schedule: Q01DX005 (sc), vehicle: steriod suspending solution
[4] = dose: 25.0 mg/kg/injection, schedule: Q02DX010 (sc), vehicle: steriod suspending solution
[5] = dose: 50.0 mg/kg/injection, schedule: Q01DX005 (sc), vehicle: steriod suspending solution
[6] = dose: 50.0 mg/kg/injection, schedule: Q02DX010 (sc), vehicle: steriod suspending solution
[7] = dose: 50.0 mg/kg/injection, schedule: Q03DX004 (sc), vehicle: steriod suspending solution
[8] = dose: 100.0 mg/kg/injection, schedule: Q01DX005 (sc), vehicle: steriod suspending solution
[9] = dose: 100.0 mg/kg/injection, schedule: Q02DX010 (sc), vehicle: steriod suspending solution
[10] = dose: 100.0 mg/kg/injection, schedule: Q03DX004 (sc), vehicle: steriod suspending solution
[11] = dose: 25.0 mg/kg/injection, schedule: Q01DX010 (ip), vehicle: saline
[12] = dose: 50.0 mg/kg/injection, schedule: Q01DX010 (ip), vehicle: saline
[13] = dose: 100.0 mg/kg/injection, schedule: Q01DX010 (ip), vehicle: saline
[14] = dose: 200.0 mg/kg/injection, schedule: Q01DX010 (ip), vehicle: saline
[15] = dose: 6.25 mg/kg/injection, schedule: Q01DX010 (ip), vehicle: saline
[16] = dose: 12.5 mg/kg/injection, schedule: Q01DX010 (ip), vehicle: saline
[17] = dose: 5.0 mg/kg/injection, schedule: Q01DX010 (ip), vehicle: saline
[18] = dose: 400.0 mg/kg/injection, schedule: Q01DX010 (ip), vehicle: saline
[19] = dose: 25.0 mg/kg/injection, schedule: Q01DX010 (sc), vehicle: steriod suspending solution
[20] = dose: 12.5 mg/kg/injection, schedule: Q02DX010 (sc), vehicle: steriod suspending solution

CC(=O)OCC(=O)[C@@]1(O)CC[C@H]2[C@@H]3CCC4=CC(=O)[C@H](C)C[C@]4(C)[C@H]3[C@@H](O)C[C@@]21C
T/C (dose: 0.78 mg/kg/injection, schedule: Q01DX Z (sc), vehicle: steriod suspending solution): 111 % of control | T/C (dose: 1.56 mg/kg/injection, schedule: Q01DX Z (sc), vehicle: steriod suspending solution): 101 % of control | T/C (dose: 3.13 mg/kg/injection, schedule: Q01DX Z (sc), vehicle: steriod suspending solution): 108 % of control | T/C (dose: 6.25 mg/kg/injection, schedule: Q01DX Z (sc), vehicle: steriod suspending solution): 101 % of control and 88 % of control | T/C [1]: 61 % of control | T/C [2]: 33 % of control and 50 % of control | T/C (dose: 12.5 mg/kg/injection, schedule: Q01DX Z (sc), vehicle: steriod suspending solution): 96 % of control | T/C [3]: 27 % of control | T/C (dose: 25.0 mg/kg/injection, schedule: Q01DX Z (sc), vehicle: steriod suspending solution): 73 % of control | T/C [4]: 96 % of control | T/C (dose: 25.0 mg/kg/injection, schedule: Q03DX004 (sc), vehicle: steriod suspending solution): 65 % of control | T/C [5]: 9 % of control | T/C (dose: 50.0 mg/kg/injection, schedule: Q01DX Z (sc), vehicle: steriod suspending solution): 76 % of control | T/C [6]: 100 % of control | T/C [7]: 17 % of control | T/C [8]: 4 % of control | T/C [9]: 108 % of control | T/C [10]: 2 % of control

NC(=O)n1cccn1
T/C [11]: 84 % of control | T/C [12]: 75 % of control | T/C [13]: 71 % of control | T/C [14]: 45 % of control

NC(=O)NO
T/C (dose: 60.0 mg/kg/injection, schedule: Q01DX010 (ip), vehicle: saline): 60 % of control | T/C (dose: 90.0 mg/kg/injection, schedule: Q01DX010 (ip), vehicle: saline): 54 % of control | T/C (dose: 135.0 mg/kg/injection, schedule: Q01DX010 (ip), vehicle: saline): 39 % of control | T/C [14]: 12 % of control

NCCCC(N)C(=O)NCCCCCCCCCCNC(=O)C(N)CCCN (configuration not stated)
T/C [15]: 98 % of control | T/C [16]: 86 % of control | T/C [11]: 92 % of control | T/C [12]: 65 % of control

NC(Cc1ccc(N(CCCl)CCCl)cc1)C(=O)O (configuration not stated)
T/C (dose: 2.5 mg/kg/injection, schedule: Q01DX010 (ip), vehicle: saline): 51 % of control | T/C [17]: 39 % of control

OC(CBr)C(O)C(O)C(O)CBr (configuration not stated)
T/C [11]: 62 % of control | T/C [12]: 70 % of control and 84 % of control | T/C [18]: 98 % of control

Nc1ncnc2c1ccn2C1OC(CO)C(O)C1O (configuration not stated)
T/C (dose: 0.32 mg/kg/injection, schedule: Q01DX010 (ip), vehicle: saline): 97 % of control | T/C (dose: 0.63 mg/kg/injection, schedule: Q01DX010 (ip), vehicle: saline): 101 % of control | T/C (dose: 1.25 mg/kg/injection, schedule: Q01DX010 (ip), vehicle: saline): 84 % of control

NCCCC(N)C(=O)NCCCCCCNCCCCCCNC(=O)C(N)CCCN (configuration not stated)
T/C [16]: 86 % of control | T/C [11]: 62 % of control | T/C [12]: 77 % of control | T/C [13]: 34 % of control

C[C@@H]1C[C@@]2(C)[C@@H](CC[C@@H]3[C@@H]2CC[C@]2(C)[C@@H](O)CC[C@@H]32)CC1=O
T/C [2]: 118 % of control and 124 % of control | T/C [19]: 100 % of control and 107 % of control | T/C (dose: 50.0 mg/kg/injection, schedule: Q01DX010 (sc), vehicle: steriod suspending solution): 101 % of control and 111 % of control | T/C (dose: 100.0 mg/kg/injection, schedule: Q01DX010 (sc), vehicle: steriod suspending solution): 109 % of control and 121 % of control

C[C@]12CCC(=O)C=C1CC[C@@H]1[C@@H]2[C@@H](O)C[C@@]2(C)[C@H]1CC[C@]2(O)C(=O)CO
T/C [1]: 51 % of control | T/C [20]: 105 % of control | T/C [3]: 15 % of control | T/C [4]: 105 % of control | T/C [5]: 7 % of control | T/C [6]: 110 % of control | T/C [8]: 1 % of control

C[C@H]1C(=O)O[C@@H]2CCN3CC=C(COC(=O)[C@](C)(O)[C@@]1(C)O)[C@H]23
T/C (dose: 3.13 mg/kg/injection, schedule: Q01DX010 (ip), vehicle: saline): 74 % of control and 79 % of control | T/C [15]: 77 % of control | T/C [16]: 62 % of control and 80 % of control

O=C(NCCCCC(NC(=O)OCc1ccccc1)C(=O)NCCCCCCNCCCCCCNC(=O)C(CCCCNC(=O)OCc1ccccc1)NC(=O)OCc1ccccc1)OCc1ccccc1 (configuration not stated)
T/C [16]: 78 % of control | T/C [11]: 66 % of control | T/C [13]: 44 % of control and 61 % of control | T/C [14]: 70 % of control

c1ccc(CSc2ncnc3nc[nH]c23)cc1
T/C [16]: 70 % of control and 82 % of control | T/C [11]: 83 % of control and 85 % of control | T/C [13]: 13 % of control

CC(=O)NCCCCCCNC(C)=O
T/C [12]: 112 % of control | T/C [13]: 95 % of control | T/C [14]: 119 % of control | T/C [18]: 86 % of control

CCc1c(CC(=O)O)c2cc(C)ccc2n1Cc1ccc(Cl)cc1
T/C [16]: 120 % of control | T/C [11]: 87 % of control | T/C [12]: 54 % of control

CC(=O)OCC(=O)[C@@]1(O)CC[C@H]2[C@@H]3CCC4=CC(=O)[C@H](C)C[C@]4(C)[C@@]3(F)[C@@H](O)C[C@@]21C
T/C (dose: 3.75 mg/kg/injection, schedule: Q01DX Z (sc), vehicle: steriod suspending solution): 94 % of control | T/C (dose: 6.25 mg/kg/injection, schedule: Q01DX010 (sc), vehicle: steriod suspending solution): 111 % of control | T/C (dose: 6.25 mg/kg/injection, schedule: Q02DX010 (sc), vehicle: steriod suspending solution): 94 % of control | T/C (dose: 7.5 mg/kg/injection, schedule: Q01DX Z (sc), vehicle: steriod suspending solution): 111 % of control | T/C [1]: 38 % of control | T/C [20]: 101 % of control | T/C (dose: 15.0 mg/kg/injection, schedule: Q01DX Z (sc), vehicle: steriod suspending solution): 74 % of control | T/C [3]: 5 % of control | T/C [19]: 1 % of control and 2 % of control and 26 % of control | T/C [4]: 89 % of control | T/C (dose: 30.0 mg/kg/injection, schedule: Q01DX Z (sc), vehicle: steriod suspending solution): 74 % of control | T/C [5]: 2 % of control | T/C (dose: 60.0 mg/kg/injection, schedule: Q01DX Z (sc), vehicle: steriod suspending solution): 88 % of control | T/C [8]: 1 % of control

O=C(Nc1ccc(NC2=NCCN2)cc1)c1ccc(C(=O)Nc2ccc(NC3=NCCN3)cc2)cc1
T/C (dose: 2.0 mg/kg/injection, schedule: Q01DX010 (ip), vehicle: saline): 78 % of control | T/C (dose: 4.0 mg/kg/injection, schedule: Q01DX010 (ip), vehicle: saline): 81 % of control | T/C (dose: 8.0 mg/kg/injection, schedule: Q01DX010 (ip), vehicle: saline): 36 % of control

COc1ccc2c(c1)CC[C@@H]1[C@@H]2CC[C@@]2(C)[C@H]1CC[C@@]2(O)C(F)=C(F)F
T/C (dose: 111.0 mg/kg/injection, schedule: Q01DX010 (sc), vehicle: steriod suspending solution): 12 % of control | T/C (dose: 167.0 mg/kg/injection, schedule: Q01DX010 (sc), vehicle: steriod suspending solution): 9 % of control | T/C (dose: 250.0 mg/kg/injection, schedule: Q01DX010 (sc), vehicle: steriod suspending solution): 10 % of control | T/C (dose: 375.0 mg/kg/injection, schedule: Q01DX010 (sc), vehicle: steriod suspending solution): 8 % of control

CC(=O)[C@H]1CC[C@H]2[C@@H]3C[C@H](C)C4=CC(=O)CC[C@]4(C)[C@H]3C(=O)C[C@]12C
T/C [1]: 89 % of control | T/C [2]: 93 % of control and 95 % of control | T/C [3]: 62 % of control | T/C [19]: 92 % of control and 96 % of control | T/C [5]: 41 % of control | T/C [6]: 96 % of control | T/C [7]: 43 % of control | T/C (dose: 75.0 mg/kg/injection, schedule: Q01DX010 (sc), vehicle: steriod suspending solution): 103 % of control | T/C (dose: 75.0 mg/kg/injection, schedule: Q02DX010 (sc), vehicle: steriod suspending solution): 89 % of control | T/C [8]: 32 % of control | T/C [9]: 93 % of control | T/C [10]: 46 % of control | T/C (dose: 200.0 mg/kg/injection, schedule: Q01DX010 (sc), vehicle: steriod suspending solution): 22 % of control

CCOC(=O)NP(=O)(N1CC1)N1CC1
T/C [17]: 64 % of control | T/C (dose: 10.0 mg/kg/injection, schedule: Q01DX010 (ip), vehicle: saline): 55 % of control

Cc1ccc2[nH]c3nc4cc(C)c(C)cc4nc3c2c1
T/C [12]: 93 % of control | T/C [13]: 76 % of control

Nc1c(Br)cc2c(c1Br)Cc1cc([N+](=O)[O-])ccc1-2
T/C (dose: 31.3 mg/kg/injection, schedule: Q01DX010 (ip), vehicle: saline): 72 % of control | T/C (dose: 62.5 mg/kg/injection, schedule: Q01DX010 (ip), vehicle: saline): 78 % of control | T/C (dose: 125.0 mg/kg/injection, schedule: Q01DX010 (ip), vehicle: saline): 61 % of control | T/C (dose: 250.0 mg/kg/injection, schedule: Q01DX010 (ip), vehicle: saline): 62 % of control
